Measurements from ChEMBL document CHEMBL1201862, “PubChem BioAssay data set” (2004).
Calls of active or inactive are those of the source.

What was measured:
[1] = C. albicans growth with fluconazole, confirmation, fluorescence, retest (AID 2467); type: functional, cell-based
[2] = Vero E6 cell cytotoxicity, dose response, cytotoxicity control for non-replicating M. tuberculosis project, secondary assay (AID 492998); type: functional, VeroE6; conditions: Vero C1008
[3] = NIH-3T3 fibroblast cytotoxicity, dose response, cytotoxicity control, cell-based, fluorescence, Alamar Blue, secondary assay (AID 2327); type: functional;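 also: NIH-3T3 mouse fibroblasts cultured with fluconazole at 8 µg/mL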
[4] = microbe, parasite or virus in culture; type: functional; conditions: Mycobacterium tuberculosis
[5] = target: T1, Short transient receptor potential channel 4 (Mus musculus, UniProt Q9QUQ5); experiment: mouse TRPC4 channel activators, dose response, cell-based, HEK293 TRPC4/mu-opioid, Fluo-4 calcium (AID 434937); type: functional
T1 sequence (Q9QUQ5 whole entry): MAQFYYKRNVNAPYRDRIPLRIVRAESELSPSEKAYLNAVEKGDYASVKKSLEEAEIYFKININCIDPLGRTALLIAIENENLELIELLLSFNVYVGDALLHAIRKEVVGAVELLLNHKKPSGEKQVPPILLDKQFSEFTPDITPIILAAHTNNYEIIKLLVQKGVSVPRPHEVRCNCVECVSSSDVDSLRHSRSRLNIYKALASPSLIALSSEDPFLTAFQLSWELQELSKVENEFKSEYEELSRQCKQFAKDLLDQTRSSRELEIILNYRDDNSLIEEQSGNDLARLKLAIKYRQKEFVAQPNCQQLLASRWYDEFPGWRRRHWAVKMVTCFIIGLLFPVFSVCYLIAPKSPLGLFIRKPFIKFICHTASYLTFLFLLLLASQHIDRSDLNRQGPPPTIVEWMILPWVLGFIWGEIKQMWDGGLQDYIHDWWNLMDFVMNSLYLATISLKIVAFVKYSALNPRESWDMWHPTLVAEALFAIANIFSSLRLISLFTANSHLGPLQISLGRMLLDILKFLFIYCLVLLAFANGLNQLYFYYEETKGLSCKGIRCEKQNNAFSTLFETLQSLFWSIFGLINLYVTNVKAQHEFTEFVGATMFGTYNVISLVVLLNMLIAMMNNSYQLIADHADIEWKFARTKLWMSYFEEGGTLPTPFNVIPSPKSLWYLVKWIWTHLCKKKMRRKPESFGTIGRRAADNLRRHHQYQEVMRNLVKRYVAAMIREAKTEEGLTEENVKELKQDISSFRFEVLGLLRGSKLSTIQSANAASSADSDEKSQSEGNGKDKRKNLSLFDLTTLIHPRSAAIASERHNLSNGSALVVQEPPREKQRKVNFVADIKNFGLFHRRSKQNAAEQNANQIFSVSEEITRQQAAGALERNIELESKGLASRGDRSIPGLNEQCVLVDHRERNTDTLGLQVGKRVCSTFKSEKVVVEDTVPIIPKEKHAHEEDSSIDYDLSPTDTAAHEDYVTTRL

Protein RecA = target: T2, Protein RecA (Mycobacterium tuberculosis, UniProt P9WHJ3); experiment: Fluorescence Cell-Free Homogeneous Dose Retest to Identify Inhibitors of RecA-Intein Splicing Activity. [Related pubchem assays (depositor defined):AID2097, AID2223, AID489010, AID492950]; type: functional
T2 sequence (P9WHJ3 whole entry): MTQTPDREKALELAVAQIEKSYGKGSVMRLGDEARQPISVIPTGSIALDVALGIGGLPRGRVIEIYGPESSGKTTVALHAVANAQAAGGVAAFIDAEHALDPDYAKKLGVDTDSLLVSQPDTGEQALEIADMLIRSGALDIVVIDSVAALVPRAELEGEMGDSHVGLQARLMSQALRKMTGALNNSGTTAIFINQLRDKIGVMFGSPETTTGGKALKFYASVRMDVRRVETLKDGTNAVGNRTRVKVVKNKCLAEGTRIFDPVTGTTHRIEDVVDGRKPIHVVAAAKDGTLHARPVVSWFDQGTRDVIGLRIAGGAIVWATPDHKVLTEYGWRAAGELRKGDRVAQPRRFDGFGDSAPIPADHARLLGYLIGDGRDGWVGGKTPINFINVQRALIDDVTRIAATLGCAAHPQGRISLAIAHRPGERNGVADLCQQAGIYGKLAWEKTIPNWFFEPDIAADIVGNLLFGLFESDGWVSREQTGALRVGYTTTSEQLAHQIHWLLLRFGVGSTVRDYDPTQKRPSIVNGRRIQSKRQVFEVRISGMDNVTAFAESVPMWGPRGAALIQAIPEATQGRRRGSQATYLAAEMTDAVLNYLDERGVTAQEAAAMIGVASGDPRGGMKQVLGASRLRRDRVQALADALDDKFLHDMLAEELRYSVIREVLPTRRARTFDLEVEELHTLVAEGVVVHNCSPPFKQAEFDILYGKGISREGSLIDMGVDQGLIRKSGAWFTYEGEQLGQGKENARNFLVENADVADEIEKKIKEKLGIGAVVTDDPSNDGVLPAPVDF

[6] = target: T3, Replicative DNA helicase DnaB (Mycobacterium tuberculosis, UniProt P9WMR3); experiment: DnaB intein splicing inhibitors, dose response, biochemical, cell-free fluorescence (AID 449749); type: functional
T3 sequence (P9WMR3 whole entry): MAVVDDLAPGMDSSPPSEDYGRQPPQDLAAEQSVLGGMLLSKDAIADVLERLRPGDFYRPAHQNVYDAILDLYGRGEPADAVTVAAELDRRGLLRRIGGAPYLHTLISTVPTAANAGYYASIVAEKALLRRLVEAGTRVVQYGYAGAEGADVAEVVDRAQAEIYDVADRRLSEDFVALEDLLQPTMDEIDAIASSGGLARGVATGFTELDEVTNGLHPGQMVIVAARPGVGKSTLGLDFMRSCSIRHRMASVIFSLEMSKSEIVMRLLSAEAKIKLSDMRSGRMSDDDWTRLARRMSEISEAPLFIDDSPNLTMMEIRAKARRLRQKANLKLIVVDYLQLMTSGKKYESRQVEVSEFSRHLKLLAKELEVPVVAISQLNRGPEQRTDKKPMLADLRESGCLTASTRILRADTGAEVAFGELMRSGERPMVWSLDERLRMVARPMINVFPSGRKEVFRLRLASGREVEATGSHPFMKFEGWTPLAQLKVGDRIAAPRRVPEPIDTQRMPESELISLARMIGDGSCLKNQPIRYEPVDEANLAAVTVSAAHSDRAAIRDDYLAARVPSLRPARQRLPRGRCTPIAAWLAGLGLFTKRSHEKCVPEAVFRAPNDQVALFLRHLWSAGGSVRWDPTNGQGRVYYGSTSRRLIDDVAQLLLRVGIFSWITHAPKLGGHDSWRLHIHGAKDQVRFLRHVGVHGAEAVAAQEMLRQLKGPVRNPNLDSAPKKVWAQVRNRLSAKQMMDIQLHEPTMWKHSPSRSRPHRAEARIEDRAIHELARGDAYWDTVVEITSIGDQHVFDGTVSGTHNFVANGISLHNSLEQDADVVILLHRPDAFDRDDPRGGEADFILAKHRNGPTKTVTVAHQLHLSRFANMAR

[7] = target: T4, Endoribonuclease toxin MazF (Escherichia coli K-12, UniProt P0AE70); experiment: fluorescent RNA oligo signal without MazF, dose response, counter-screen for MazEF activator project, biochemical, fluorescence, single-stranded RNase substrate (AID 588502); type: functional
T4 sequence (P0AE70 whole entry): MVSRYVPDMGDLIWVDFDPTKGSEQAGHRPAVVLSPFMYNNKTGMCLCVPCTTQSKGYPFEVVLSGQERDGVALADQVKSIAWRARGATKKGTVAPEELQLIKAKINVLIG

[8] = target: T4, Endoribonuclease toxin MazF; experiment: MazF toxin RNase activators, dose response, biochemical, fluorescence, single-stranded RNA substrate, uHTS hits (AID 588481); type: functional
Cytochrome P450 3A4 = Cytochrome P450 3A4 (Homo sapiens, UniProt P08684); conditions: Potency;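 also: confirmatory qHTS run detecting inhibitors and substrates of CYP3A4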
[9] = target: Voltage-gated inwardly rectifying potassium channel KCNH2 (Homo sapiens, UniProt Q12809); conditions: Potency;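 also: confirmatory quantitative high-throughput screen measuring inhibition of hERG channel activity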
[10] = target: T5, High affinity choline transporter 1 (Homo sapiens, UniProt Q9GZV3); experiment: CHT inhibitors, dose response, cell-based, 5-point CRC, membrane potential dye (AID 504840); type: functional
T5 sequence (Q9GZV3 whole entry): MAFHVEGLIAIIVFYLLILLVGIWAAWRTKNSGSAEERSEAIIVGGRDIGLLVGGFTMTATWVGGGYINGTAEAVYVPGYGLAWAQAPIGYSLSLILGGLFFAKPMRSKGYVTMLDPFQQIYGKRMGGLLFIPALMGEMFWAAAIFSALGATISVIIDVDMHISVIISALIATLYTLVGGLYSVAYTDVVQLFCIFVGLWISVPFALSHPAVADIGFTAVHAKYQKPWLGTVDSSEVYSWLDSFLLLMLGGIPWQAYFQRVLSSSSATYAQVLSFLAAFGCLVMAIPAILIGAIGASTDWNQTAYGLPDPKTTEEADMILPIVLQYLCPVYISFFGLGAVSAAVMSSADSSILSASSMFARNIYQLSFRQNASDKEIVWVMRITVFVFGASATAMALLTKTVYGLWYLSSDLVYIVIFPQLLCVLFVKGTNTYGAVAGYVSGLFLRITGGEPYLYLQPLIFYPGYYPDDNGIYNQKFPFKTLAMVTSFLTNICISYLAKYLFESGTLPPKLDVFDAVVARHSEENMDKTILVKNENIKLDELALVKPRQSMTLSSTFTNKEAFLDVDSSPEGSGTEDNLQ

[11] = HepG2 cell cytotoxicity, dose response, cytotoxicity control for non-replicating M. tuberculosis project (AID 489018); type: functional; conditions: Mycobacterium tuberculosis
[12] = THP-1 cell cytotoxicity, dose response, cytotoxicity control for non-replicating M. tuberculosis project (AID 489025); type: functional
cells = type: functional
[13] = cytotoxicity in HEK-293T cells, dose response, cytotoxicity control for TCR NF-kB inhibitor project, luminescence, T-cell screen hits (AID 489026); type: functional, cell-based;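 also: cells exposed to compound about 14 hours before the viability readout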
Streptococcus = experiment: Group A Streptococcus viability loss, dose response, counter-screen for streptokinase expression inhibitor project, luminescence, BacTiterGlo (AID 1915); type: functional, organism-based;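 also: potency for reduction of bacterial viability or growth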
[14] = system: Streptococcus sp. 'group A'; experiment: growth inhibition of control SK(-) GAS strain, dose response, counter-screen for streptokinase expression inhibitor project, luminescence, kanamycin, BacTiterGlo, confirmation (AID 1900); type: functional, organism-based
Streptokinase A = target: T6, Streptokinase A (Streptococcus pyogenes serotype M1, UniProt P10520); experiment: S. pyogenes streptokinase expression inhibitors, potency, dose response, plasminogen activation absorbance, OD405 (AID 1914); type: functional, Streptococcus pyogenes M1 GAS;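 also: secreted streptokinase activity via plasminogen activation per viability signal from cell pellet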
T6 sequence (P10520 whole entry): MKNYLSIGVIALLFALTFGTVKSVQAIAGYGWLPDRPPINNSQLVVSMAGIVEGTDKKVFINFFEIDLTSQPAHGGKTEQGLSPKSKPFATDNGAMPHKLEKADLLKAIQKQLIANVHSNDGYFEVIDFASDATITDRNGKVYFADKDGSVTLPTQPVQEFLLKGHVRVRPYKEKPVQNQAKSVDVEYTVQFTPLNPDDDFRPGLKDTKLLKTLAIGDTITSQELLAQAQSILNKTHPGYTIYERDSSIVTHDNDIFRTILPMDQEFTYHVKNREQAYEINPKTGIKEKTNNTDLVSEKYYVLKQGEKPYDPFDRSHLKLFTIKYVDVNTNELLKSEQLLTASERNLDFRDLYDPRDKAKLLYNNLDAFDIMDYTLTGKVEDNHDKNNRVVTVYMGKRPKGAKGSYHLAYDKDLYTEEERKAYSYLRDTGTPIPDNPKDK

SN12K1 = experiment: cells; type: functional; conditions: Homo sapiens
P388 = experiment: cells; type: functional; conditions: Mus musculus
P388/ADR = experiment: cells; type: functional; conditions: Mus musculus

Sequence of Voltage-gated inwardly rectifying potassium channel KCNH2 (Q12809 whole entry): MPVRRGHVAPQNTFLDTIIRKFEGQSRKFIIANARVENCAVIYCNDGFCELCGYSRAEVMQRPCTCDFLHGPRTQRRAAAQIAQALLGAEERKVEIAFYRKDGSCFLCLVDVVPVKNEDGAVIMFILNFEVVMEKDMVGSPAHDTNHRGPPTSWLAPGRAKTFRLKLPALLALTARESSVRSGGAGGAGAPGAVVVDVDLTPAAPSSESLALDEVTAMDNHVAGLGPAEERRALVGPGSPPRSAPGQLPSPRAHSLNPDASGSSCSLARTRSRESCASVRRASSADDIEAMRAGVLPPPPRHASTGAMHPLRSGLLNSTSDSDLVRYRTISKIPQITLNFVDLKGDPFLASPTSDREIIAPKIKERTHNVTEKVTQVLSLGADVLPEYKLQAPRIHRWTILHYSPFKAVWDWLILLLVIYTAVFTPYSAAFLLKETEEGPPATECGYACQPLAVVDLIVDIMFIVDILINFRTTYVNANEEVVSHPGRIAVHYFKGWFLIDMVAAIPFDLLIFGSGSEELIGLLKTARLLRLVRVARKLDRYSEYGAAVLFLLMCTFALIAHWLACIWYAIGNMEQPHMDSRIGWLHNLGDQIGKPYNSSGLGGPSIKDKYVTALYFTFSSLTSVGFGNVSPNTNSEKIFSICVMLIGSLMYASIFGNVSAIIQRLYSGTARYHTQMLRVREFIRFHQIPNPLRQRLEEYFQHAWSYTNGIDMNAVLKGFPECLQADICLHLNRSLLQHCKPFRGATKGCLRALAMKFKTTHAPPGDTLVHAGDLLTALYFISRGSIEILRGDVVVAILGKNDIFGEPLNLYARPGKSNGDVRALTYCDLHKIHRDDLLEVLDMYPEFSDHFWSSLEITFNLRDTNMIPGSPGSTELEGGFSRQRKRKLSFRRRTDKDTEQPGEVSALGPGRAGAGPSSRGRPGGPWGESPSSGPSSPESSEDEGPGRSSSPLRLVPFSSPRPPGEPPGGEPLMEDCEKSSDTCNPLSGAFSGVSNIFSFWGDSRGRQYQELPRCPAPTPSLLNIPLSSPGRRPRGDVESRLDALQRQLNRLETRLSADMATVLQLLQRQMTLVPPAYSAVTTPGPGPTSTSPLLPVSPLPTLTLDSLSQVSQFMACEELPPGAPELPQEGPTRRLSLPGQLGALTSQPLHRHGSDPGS
Sequence of Cytochrome P450 3A4 (P08684 whole entry): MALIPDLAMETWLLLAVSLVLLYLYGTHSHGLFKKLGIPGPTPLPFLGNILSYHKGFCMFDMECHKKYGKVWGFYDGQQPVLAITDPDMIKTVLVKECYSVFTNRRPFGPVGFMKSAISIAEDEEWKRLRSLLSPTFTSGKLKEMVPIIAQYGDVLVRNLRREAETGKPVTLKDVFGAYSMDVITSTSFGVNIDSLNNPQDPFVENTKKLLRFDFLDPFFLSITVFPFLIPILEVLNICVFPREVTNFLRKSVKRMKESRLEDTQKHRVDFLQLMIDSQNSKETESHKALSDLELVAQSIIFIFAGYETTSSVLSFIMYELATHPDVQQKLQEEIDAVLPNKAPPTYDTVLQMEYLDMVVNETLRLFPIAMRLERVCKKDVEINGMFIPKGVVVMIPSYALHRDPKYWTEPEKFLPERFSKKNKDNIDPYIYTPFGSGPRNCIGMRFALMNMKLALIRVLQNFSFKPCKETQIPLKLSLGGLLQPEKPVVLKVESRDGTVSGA

CC(C)c1ccc(C2=C(O)C(=O)c3ccccc3C2=O)cc1
EC50 [1]: 1.11 µM (active)
CC50 [2]: 16.5 µM (active)
EC50 [3]: 67.1 µM (active)

CN(C)C1(CNC(=O)Nc2ccc(Cl)c(Cl)c2)CCCCC1
CC50 [4]: > 40 µM (active)
EC50 [5]: 1.68 µM (active)

Cc1cccc(C(=O)OC2CCCN(C)C2)c1C (stereo unspecified)
EC50 [5]: 0.841 µM (active)

O=C(CCl)NN=C(c1ccccc1)c1ccccc1
CC50 [4]: 6.85 µM (active)
EC50 (Protein RecA): 2.71 µM (active)
AC50 [6]: 12.1 µM (active)
EC50 [7]: > 99 µM (inactive)
EC50 [8]: 61.2 µM (inactive)

COc1cccc(Nc2nc(-c3ccccc3O)nc3ccccc23)c1
EC50 [7]: 40.7 µM (inactive)
EC50 [8]: > 99 µM (inactive)

CCCCCCCC/C=C\CCCCCCCC(=O)N(CCO)CCO
AC50 (Cytochrome P450 3A4): 12.6 µM (inconclusive)
AC50 [9]: 31.6 µM (inconclusive)

Cc1cccc(OCC(O)Cn2c(=N)n(Cc3ccccc3)c3ccccc32)c1 (stereo unspecified)
IC50 [10]: 6.92 µM (active)
CC50 [11]: > 20 µM (active)
CC50 [12]: 23.3 µM (active)

COc1cc(C(=O)N/N=C/c2cc([N+](=O)[O-])cs2)cc(OC)c1OC
CC50 [11]: > 20 µM (active)
IC50 (cells): 0.87 µM (active)
IC50 [13]: > 80 µM (inactive)
CC50 [12]: 0.724 µM (active)
CC50 [2]: 5.03 µM (active)

O=[N+]([O-])c1cc(Cl)cc(/C=N/Nc2nc3ccccc3s2)c1O
CC50 [11]: 16.4 µM (active)
EC50 (Streptococcus): 7.64 µM (active)
IC50 (cells): 2.82 µM (active)
CC50 [12]: 10 µM (active)
EC50 [14]: 2.17 µM (active)
EC50 (Streptokinase A): > 150 µM (not active)
CC50 [2]: 10.4 µM (active)

CCOC(=O)c1ncn2c1[C@@H]1CCCN1C(=O)c1cc(OC)ccc1-2
AC50 [9]: 25.1 µM (inconclusive)

ClC1=C(Cl)C2(Cl)C3C4C=CC(C4)C3C1(Cl)C2(Cl)Cl (stereo unspecified) [ALDRIN]
AC50 [9]: 20 µM (inconclusive)

Nc1nc2[nH]c(=O)cnc2c(=O)[nH]1 [ISOXANTHOPTERIN]
GI50 (SN12K1): > 125 µM (inactive)
AC50 [9]: 17.8 µM (inconclusive)
GI50 (P388): > 125 µM (inactive)
GI50 (P388/ADR): > 125 µM (inactive)
